Data: ChEMBL document CHEMBL1201862, “PubChem BioAssay data set” (2004)
The source made the active and inactive calls.

Assays:
[1] = biological target: T1, Eukaryotic translation initiation factor 2-alpha kinase 3 (Homo sapiens, UniProt Q9NZJ5); assay: Counterscreen assay for PERK inhibitors: Dose response cell-based high throughput screening assay to measure inhibition of PERK at 6 hours. [Related pubchem assays: 1522, 1416 ]; format: functional
[2] = biological target: T1, Eukaryotic translation initiation factor 2-alpha kinase 3; assay: Dose response cell-based high-throughput screening assay to measure PERK inhibition. [Related pubchem assays: 1416 ]; format: functional
[3] = biological target: RNA-editing ligase 1, mitochondrial (Trypanosoma brucei brucei, UniProt P86926); assay: TbREL1 ligase inhibitors, dose response, biochemical, fluorescence, Trypanosoma brucei (AID 1117295); format: functional
RNA-editing ligase 1, mitochondrial, sequence (P86926 whole entry): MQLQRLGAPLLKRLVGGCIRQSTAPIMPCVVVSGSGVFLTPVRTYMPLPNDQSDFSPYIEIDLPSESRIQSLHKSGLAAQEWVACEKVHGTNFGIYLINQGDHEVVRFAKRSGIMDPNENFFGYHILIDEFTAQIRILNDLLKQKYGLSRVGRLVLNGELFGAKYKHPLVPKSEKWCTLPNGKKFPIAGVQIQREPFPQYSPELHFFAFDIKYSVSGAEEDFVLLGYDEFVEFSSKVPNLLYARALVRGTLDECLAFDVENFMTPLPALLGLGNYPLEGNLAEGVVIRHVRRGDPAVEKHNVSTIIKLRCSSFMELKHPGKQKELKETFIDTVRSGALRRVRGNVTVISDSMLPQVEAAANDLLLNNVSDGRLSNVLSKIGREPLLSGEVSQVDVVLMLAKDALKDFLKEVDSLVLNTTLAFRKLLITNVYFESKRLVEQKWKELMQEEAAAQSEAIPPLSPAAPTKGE

[4] = biological target: Procathepsin L (Homo sapiens, UniProt P07711)
[5] = biological target: T2, Aspartyl aminopeptidase (Plasmodium falciparum 3D7, UniProt Q8I2J3)
T2 sequence (Q8I2J3 whole entry): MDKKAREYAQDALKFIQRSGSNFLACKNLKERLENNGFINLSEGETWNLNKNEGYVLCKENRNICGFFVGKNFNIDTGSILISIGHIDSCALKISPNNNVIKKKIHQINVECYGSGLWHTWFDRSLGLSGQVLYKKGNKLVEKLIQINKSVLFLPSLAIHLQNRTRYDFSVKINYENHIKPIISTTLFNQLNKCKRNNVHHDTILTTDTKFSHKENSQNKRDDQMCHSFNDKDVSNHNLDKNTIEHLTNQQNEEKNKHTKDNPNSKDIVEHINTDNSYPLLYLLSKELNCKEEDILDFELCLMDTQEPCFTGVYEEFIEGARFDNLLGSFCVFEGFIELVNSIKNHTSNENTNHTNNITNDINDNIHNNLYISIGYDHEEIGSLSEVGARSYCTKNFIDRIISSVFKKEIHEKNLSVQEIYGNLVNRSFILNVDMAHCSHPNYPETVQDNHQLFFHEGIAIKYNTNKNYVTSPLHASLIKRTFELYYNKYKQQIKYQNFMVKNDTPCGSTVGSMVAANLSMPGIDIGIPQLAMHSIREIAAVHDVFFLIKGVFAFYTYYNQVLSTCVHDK

[6] = biological target: Large T antigen (Simian virus 40, UniProt P03070); format: functional, Betapolyomavirus macacae;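 further: Confirmatory-stage PubChem screen for compounds that inhibit SV40 T antigen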
[7] = biological target: Lysosomal acid glucosylceramidase (Homo sapiens, UniProt P04062); assay: Dose response cell-based high throughput screening assay to identify enhancers of beta-glucosidase activity. [Related pubchem assays: 784 ]; format: functional
[8] = biological target: Albumin (Bos taurus, UniProt P02769); assay: Counterscreen for inhibitors of T-cell receptor (TCR)-CD3 interaction: Fluorescence-based biochemical high throughput dose response assay to identify inhibitors of T-cell receptor (TCR)-CD3 interaction using a TAMRA-labeled BSA probe.; format: functional
[9] = biological target: T3, Voltage-gated N-type calcium channel alpha-1B subunit/Amyloid beta A4 precursor protein-binding family A member 1 (Homo sapiens, UniProt Q00975+Q02410); format: protein assay
T3 sequence (Q00975 whole entry): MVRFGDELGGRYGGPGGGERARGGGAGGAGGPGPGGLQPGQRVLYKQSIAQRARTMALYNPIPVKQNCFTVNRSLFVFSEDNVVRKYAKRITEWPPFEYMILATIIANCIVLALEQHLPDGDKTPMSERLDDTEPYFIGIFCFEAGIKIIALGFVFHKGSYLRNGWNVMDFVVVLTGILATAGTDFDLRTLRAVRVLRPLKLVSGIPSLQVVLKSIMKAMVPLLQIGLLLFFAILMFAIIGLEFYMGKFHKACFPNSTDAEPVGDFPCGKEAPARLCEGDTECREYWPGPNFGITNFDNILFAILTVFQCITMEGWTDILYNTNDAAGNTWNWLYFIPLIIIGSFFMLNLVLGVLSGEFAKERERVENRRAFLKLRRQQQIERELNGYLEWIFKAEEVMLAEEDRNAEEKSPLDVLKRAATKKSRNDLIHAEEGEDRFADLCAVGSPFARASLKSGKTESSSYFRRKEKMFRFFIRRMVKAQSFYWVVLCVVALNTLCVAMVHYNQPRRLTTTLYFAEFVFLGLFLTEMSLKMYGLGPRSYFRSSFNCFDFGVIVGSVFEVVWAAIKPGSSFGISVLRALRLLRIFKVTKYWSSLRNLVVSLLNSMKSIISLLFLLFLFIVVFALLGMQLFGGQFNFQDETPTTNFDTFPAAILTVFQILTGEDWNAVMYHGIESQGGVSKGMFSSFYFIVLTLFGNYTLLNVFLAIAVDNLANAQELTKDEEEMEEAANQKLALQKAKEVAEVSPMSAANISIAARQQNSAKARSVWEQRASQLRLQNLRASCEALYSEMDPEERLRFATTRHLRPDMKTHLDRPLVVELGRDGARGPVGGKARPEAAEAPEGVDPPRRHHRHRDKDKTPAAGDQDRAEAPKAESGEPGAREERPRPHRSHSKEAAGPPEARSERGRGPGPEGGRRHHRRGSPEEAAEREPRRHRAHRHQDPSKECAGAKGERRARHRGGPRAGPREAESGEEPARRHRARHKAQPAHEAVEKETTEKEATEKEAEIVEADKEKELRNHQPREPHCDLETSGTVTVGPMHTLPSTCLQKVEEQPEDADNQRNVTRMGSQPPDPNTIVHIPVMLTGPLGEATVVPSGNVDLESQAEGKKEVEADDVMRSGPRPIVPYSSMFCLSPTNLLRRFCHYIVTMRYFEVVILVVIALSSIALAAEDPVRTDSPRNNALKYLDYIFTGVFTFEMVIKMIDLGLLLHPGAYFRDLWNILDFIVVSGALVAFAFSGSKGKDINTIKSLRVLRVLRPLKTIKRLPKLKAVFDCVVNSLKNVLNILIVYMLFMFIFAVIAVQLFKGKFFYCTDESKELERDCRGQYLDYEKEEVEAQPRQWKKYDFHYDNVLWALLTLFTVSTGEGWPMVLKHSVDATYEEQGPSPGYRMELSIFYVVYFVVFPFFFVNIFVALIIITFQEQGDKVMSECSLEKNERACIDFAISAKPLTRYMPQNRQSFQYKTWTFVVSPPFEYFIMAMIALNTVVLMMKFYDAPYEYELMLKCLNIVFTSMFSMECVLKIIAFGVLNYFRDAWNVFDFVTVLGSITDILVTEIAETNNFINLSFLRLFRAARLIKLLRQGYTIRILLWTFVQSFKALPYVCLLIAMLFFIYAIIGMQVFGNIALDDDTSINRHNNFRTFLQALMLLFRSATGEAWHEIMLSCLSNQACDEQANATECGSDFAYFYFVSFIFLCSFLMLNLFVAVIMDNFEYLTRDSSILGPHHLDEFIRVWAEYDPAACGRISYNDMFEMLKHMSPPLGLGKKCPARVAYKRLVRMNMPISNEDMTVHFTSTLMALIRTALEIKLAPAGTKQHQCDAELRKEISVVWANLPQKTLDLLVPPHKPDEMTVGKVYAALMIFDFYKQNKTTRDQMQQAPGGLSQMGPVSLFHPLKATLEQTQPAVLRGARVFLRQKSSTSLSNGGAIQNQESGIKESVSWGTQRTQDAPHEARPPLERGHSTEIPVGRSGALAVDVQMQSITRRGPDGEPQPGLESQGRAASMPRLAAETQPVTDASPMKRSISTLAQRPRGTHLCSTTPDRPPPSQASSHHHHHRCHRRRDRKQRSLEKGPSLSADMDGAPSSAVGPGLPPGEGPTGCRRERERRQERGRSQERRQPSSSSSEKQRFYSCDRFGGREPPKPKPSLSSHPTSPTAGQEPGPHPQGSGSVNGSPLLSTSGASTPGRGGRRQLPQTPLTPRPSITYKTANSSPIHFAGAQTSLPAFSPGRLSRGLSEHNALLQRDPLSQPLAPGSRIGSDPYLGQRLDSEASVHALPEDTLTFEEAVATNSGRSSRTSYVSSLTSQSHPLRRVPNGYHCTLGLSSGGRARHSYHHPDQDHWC
T3 sequence (Q02410 whole entry): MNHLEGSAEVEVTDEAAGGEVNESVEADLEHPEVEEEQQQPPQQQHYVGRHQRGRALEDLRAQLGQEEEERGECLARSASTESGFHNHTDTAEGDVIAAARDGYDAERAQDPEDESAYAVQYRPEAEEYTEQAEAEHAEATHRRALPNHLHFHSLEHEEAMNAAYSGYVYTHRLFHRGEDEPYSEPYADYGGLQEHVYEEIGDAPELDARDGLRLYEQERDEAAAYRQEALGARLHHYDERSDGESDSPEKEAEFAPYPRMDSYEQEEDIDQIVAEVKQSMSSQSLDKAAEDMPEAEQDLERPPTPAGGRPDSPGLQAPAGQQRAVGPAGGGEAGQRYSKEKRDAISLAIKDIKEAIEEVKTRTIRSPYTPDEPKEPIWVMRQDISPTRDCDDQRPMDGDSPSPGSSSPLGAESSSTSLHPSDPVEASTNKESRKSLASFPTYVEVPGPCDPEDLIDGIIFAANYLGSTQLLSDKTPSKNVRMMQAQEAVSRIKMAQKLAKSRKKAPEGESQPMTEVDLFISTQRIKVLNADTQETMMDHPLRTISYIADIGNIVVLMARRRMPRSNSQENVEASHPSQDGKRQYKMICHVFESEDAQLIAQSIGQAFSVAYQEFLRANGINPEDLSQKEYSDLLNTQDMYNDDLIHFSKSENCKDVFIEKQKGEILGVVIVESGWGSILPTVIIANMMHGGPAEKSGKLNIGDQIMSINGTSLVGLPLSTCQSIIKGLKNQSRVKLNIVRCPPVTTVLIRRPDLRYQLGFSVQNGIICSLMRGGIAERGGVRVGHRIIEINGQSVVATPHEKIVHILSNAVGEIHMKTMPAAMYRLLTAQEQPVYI

[10] = biological target: SUMO E1/E2 (Homo sapiens, UniProt P63279+Q9UBE0+Q9UBT2); assay: SAR analysis of SUMOylation using HTRF in an in-Vitro dose response assay. [Related pubchem assays (depositor defined):AID2006, AID2011, AID2018, AID2069, AID2658]; format: functional
[11] = biological target: T4, Small ubiquitin-related modifier 1 (Homo sapiens, UniProt P63165); assay: inhibitors of SUMO1 partner interactions, dose response, biochemical, FRET (AID 624383); format: functional; conditions: read-out: IC50_Mean
T4 sequence (P63165 whole entry): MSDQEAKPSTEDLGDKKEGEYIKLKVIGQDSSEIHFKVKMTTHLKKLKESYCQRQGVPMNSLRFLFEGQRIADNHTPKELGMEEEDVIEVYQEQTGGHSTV

[12] = biological target: T3, Voltage-gated N-type calcium channel alpha-1B subunit/Amyloid beta A4 precursor protein-binding family A member 1; assay: disruptors of Mint-PDZ/N-type channel peptide interaction – biochemical, HTRF, set 2, SAR follow-up (AID 434980); format: functional
[13] = biological target: Induced myeloid leukemia cell differentiation protein Mcl-1 (Homo sapiens, UniProt Q07820); format: functional
[14] = biological target: Genome polyprotein (Hepatitis C virus, UniProt Q2Q167); assay: HCV core protein dimerization inhibitors, dose response, biochemical, TR-FRET (AID 2159); parameters: species or system Hepacivirus hominis;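 further: blocks dimerization of HCV core protein measured by TR-FRET between tagged core106 pairs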
Genome polyprotein, sequence (Q2Q167 whole entry): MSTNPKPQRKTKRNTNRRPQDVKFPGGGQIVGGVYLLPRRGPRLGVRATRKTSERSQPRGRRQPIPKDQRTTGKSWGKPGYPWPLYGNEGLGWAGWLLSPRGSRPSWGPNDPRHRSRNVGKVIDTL

[15] = biological target: T3, Voltage-gated N-type calcium channel alpha-1B subunit/Amyloid beta A4 precursor protein-binding family A member 1; format: protein assay; remark: listed apart in the source
[16] = biological target: T3, Voltage-gated N-type calcium channel alpha-1B subunit/Amyloid beta A4 precursor protein-binding family A member 1; assay: disruptors of Mint-PDZ/N-type channel peptide interaction – biochemical, HTRF, SAR follow-up (AID 2489); format: functional
[17] = biological target: T4, Small ubiquitin-related modifier 1; assay: inhibitors of SUMO1 peptide binding, dose response, biochemical, fluorescence polarization, uHTS hits (AID 624382); format: functional; conditions: read-out: IC50_Mean
[18] = test system: J774.A1; assay: Confirmation of image-based Screening Assay for Inhibitors of Phagocytosis. [Related pubchem assays (depositor defined):AID1029, AID1643]; format: functional, cell-based; conditions: Mus musculus
[19] = test system: BJ; assay: cytotoxicity toward BJ-TERT-LT-ST fibroblasts, dose response, cell-based, RAS-independent, luminescence (AID 1935); format: functional; conditions: Homo sapiens;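 further: BJ fibroblasts immortalized with TERT plus LT and ST oncogenes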
[20] = cytotoxicity toward DRD oncogenic fibroblasts, dose response, cell-based, non-viral oncogenic, luminescence (AID 1934); format: functional; conditions: Homo sapiens
[21] = test system: BJ; assay: cytotoxicity toward BJ-TERT fibroblasts, dose response, cell-based, RAS-independent, luminescence (AID 1933); format: functional; conditions: Homo sapiens
[22] = test system: BJ; assay: cells; format: functional, cell-based; conditions: Homo sapiens
[23] = biological target: G-protein coupled receptor 35 (Homo sapiens, UniProt Q9HC97); assay: GPR35 antagonists blocking zaprinast-driven arrestin recruitment, primary screen, imaging, U2OS, beta-arrestin-GFP, zaprinast agonist (AID 2058); format: functional;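 further: antagonist potency meaning inhibition of agonist-induced arrestin redistribution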

T1 sequence (Q9NZJ5 whole entry): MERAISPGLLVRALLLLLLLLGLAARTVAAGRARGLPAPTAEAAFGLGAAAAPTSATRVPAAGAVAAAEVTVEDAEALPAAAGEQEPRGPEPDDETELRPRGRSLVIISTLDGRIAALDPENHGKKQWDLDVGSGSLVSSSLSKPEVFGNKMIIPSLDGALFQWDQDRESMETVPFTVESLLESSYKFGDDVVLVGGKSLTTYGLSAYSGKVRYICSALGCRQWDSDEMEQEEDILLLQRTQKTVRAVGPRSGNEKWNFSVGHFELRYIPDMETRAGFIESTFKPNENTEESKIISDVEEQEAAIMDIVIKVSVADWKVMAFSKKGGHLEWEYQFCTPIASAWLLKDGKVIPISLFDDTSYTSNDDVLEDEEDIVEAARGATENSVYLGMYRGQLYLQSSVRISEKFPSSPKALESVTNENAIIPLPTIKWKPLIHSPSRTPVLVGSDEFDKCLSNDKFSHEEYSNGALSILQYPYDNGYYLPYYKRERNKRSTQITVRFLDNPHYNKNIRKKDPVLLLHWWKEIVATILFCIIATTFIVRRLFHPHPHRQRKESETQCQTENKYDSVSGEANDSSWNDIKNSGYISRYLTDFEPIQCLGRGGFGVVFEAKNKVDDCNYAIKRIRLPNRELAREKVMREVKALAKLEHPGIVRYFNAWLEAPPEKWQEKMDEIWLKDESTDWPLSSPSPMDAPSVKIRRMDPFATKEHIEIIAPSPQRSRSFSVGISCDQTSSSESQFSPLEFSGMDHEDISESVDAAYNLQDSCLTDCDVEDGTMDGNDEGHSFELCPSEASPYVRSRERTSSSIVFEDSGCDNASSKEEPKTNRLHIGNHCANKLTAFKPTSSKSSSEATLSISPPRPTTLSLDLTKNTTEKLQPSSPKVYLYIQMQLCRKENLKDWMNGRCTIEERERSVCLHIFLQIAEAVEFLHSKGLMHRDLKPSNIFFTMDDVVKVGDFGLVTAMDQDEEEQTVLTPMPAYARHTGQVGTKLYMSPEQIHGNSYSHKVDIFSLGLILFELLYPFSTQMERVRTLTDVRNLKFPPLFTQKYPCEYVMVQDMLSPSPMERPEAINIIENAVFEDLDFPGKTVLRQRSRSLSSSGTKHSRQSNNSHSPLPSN

Q: Which results are given for COc1ccc(Nc2nnc(C)c(O)n2)c(OC)c1?
A: EC50 [1]: > 55.7 µM (not active); EC50 [2]: > 55.7 µM (not active)

Q: Which IC50 [3] does the source give for O=C1NC(=O)C(=Cc2ccc(-c3ccc(F)cc3O)o2)C(=O)N1 here?
A: Its IC50 is 63.8 µM (inactive).

Q: What about the IC50 [4] of the same compound?
A: The IC50 was > 59.6 µM (not active).

Q: And the IC50 [5]?
A: Its IC50 is 4.13 µM (active).

Q: What about the IC50 [6] of the same compound?
A: Its IC50 is 39.9 µM (active).

Q: For COc1ccc(CN(Cc2cc3cccc(C)c3nc2O)C(=O)N(C)C)cc1, which EC50 [7] is on record?
A: The EC50 was > 10 µM (not active).

Q: Which IC50 [8] does the source give for CN(C(=O)COC(=O)c1cc(-c2ccco2)nc2ccccc12)C1CCS(=O)(=O)C1 (stereo not drawn) here?
A: Its IC50 is > 94.1 µM (inactive).

Q: What about the IC50 [9] of the same compound?
A: Its IC50 is 28.8 µM (active).

Q: And the IC50 [10]?
A: Its IC50 is 2.66 µM (active).

Q: And the IC50 [11]?
A: The IC50 was 4.99 µM (active).

Q: And the IC50 [12]?
A: Its IC50 is 3.26 µM (active).

Q: What about the IC50 [13] of the same compound?
A: The IC50 was 1.59 µM (active).

Q: What about the IC50 [14] of the same compound?
A: Its IC50 is > 49.8 µM (not active).

Q: What about the IC50 [15] of the same compound?
A: Its IC50 is 2.15 µM (active).

Q: What about the IC50 [16] of the same compound?
A: The IC50 was 4.74 µM (active).

Q: What about the IC50 [17] of the same compound?
A: The IC50 was > 66.6 µM (inactive).

Q: What does the source list for CCN1CCN(c2ncc3c(n2)CC(c2cc(OC)c(OC)c(OC)c2)CC3=O)CC1 (stereo not drawn)?
A: IC50 [18]: 0.419 µM (active); EC50 [19]: 21.8 µM (active); EC50 [20]: 2.34 µM (active); EC50 [21]: 5.01 µM (active); EC50 [22]: 124 µM (active)

Q: For Cc1nnc(NC(=O)c2sc3nc(-c4cccs4)cc(C(F)(F)F)c3c2N)s1, which IC50 [23] is on record?
A: The IC50 was 0.61 µM (active).
